The results in this text go back to US9487554B2, “Estra-1,3,5(10),16-tetraene-3-carboxamide derivatives, processes for their preparation, pharmaceutical preparations comprising them and their use for preparing medicaments” (BAYER INTELLECTUAL PROPERTY GmbH, priority 2011, dated 2016).

“And” between values parts separate entries of the source, which are not always exact repeats. Identical values can stand only once.

recombinant human AKR1C3, sequence (P42330 whole entry): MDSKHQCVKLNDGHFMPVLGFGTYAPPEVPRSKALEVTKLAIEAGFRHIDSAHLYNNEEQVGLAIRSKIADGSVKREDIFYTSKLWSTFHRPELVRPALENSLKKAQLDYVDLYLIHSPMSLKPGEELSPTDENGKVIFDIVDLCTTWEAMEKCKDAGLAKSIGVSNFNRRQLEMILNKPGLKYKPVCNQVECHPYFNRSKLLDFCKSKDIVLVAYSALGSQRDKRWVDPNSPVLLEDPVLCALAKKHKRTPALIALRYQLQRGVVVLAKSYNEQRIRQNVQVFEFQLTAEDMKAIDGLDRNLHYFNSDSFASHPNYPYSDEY

The target of the assay is recombinant human AKR1C3 (Homo sapiens (Human), UniProt P42330). In words: AKR1C3 enzyme inhibition assay (Coumberone to Coumberol fluorescence). The following applies: individual experimental determinations. The class given is biochemical. The protocol:
The AKR1C3-inhibitory activity of the substances of the present invention was measured in the AKR1C3 assay described in the paragraphs below.
Essentially, the enzyme activity is measured by quantification of the Coumberol from Coumberone (Halim, M., Yee, D. J., and Sames, D., J. AM. CHEM. SOC. 130, 14123-14128 (2008) and Yee, D. J., Balsanek, V., Bauman, D. R., Penning, T. M., and Sames, D., Proc. Natl. Acad. Sci. USA 103, 13304-13309 (2006)). In this test, the increase of the highly fluorescent Coumberol by NADPH—(nicotinamide adenine dinucleotide phosphate)-dependent reduction of the non-fluorescent Coumberone by AKR1C3 can be determined.
The enzyme used was recombinant human AKR1C3 (Aldo-keto reductase family 1 member C3) (GenBank Accession No. NM_003739). This was expressed in E. coli as GST (glutathione S transferase) fusion protein and purified by glutathione Sepharose affinity chromatography. The GST was removed by digestion with thrombin and subsequent size exclusion chromatography (Dufort, I., Rheault, P., Huang, X F., Soucy, P., and Luu-The, V., Endocrinology 140, 568-574 (1999)).
For the assay, 50 nl of a 100-fold concentrated solution of the test substance in DMSO were pipetted into a black low-volume 384-well microtiter plate (Greiner Bio-One, Frickenhausen, Germany), 2.0 μl of a solution of AKR1C3 in assay buffer [50 mM potassium phosphate buffer pH 7, 1 mM DTT, 0.0022% (w/v) Pluronic F-127, 0.01% BSA (w/v) and protease inhibitor cocktail (Complete, EDTA-free Protease Inhibitor Cocktail from Roche)] were added and the mixture was incubated for 15 min to allow pre-binding of the substances to the enzyme prior to the enzyme reaction. The enzyme reaction was then started by addition of 3 μl of a solution of NADPH (16.7 μM→final concentration in 5 μl of assay volume is 10 μM) and Coumberone (0.5 μM→final concentration in 5 μl of assay volume is 0.3 μM) in assay buffer, and the resulting mixture was incubated at 22° C. for the reaction time of 90 min. The concentration of the AKR1C3 was adapted to the respective activity of the enzyme preparation and adjusted such that the assay was carried out in the linear range. Typical concentrations were in the region of 1 nM. The reaction was stopped by addition of 5 μl of a stop solution consisting of the inhibitor EM-1404 [F. Labrie et al. U.S. Pat. No. 6,541,463, 2003] (2 μM→final concentration in […] is 1 μM). The fluorescence of the Coumberole was then measured at 520 nm (excitation at 380 nm) using a suitable measuring instrument (Pherastar from BMG Labtechnologies). The intensity of the fluorescence was used as a measure of the amount of Coumberole formed and thus of the enzyme activity of AKR1C3. The data were normalized (enzyme reaction without inhibitor=0% inhibition; all other assay components, but no enzyme=100% inhibition).
In the case of `CC(C)(NC(=O)c1ccc2c(c1)CC[C@@H]1[C@@H]2CC[C@]2(C)C(c3cncc(F)c3)=CC[C@@H]12)C(=O)O` [Example 7, N-{[17-(5-Fluoropyridin-3-yl)estra-1,3,5(10),16-tetraen-3-yl]carbonyl}-2-methylalanine], the IC50 was 8.5 nM and 9.6 nM.

For the compound `C[C@]12CC[C@@H]3c4ccc(C(=O)NCC5(C(=O)O)CCOCC5)cc4CC[C@H]3[C@@H]1CC=C2c1cncc(F)c1` [Example 1, 4-[({[17-(5-Fluoropyridin-3-yl)estra-1,3,5(10),16-tetraen-3-yl]carbonyl}amino)methyl]-3,4,5,6-tetrahydro-2H-pyran-4-carboxylic acid], the half-inhibitory concentration (IC50) was 1.4 nM and 1.9 nM.

For `CC(C)(CNC(=O)c1ccc2c(c1)CC[C@@H]1[C@@H]2CC[C@]2(C)C(c3cncnc3)=CC[C@@H]12)C(=O)O` [Example 20, 2,2-Dimethyl-3-({[17-(pyrimidin-5-yl)estra-1,3,5(10),16-tetraen-3-yl]carbonyl}amino)-propanoic acid], the IC50 is 45.5 nM and 46.3 nM.

Consider `COc1cncc(C2=CC[C@H]3[C@@H]4CCc5cc(C(=O)N(C)CCC(=O)O)ccc5[C@H]4CC[C@]23C)c1` [Example 16, N-{[17-(5-Methoxypyridin-3-yl)estra-1,3,5(10),16-tetraen-3-yl]carbonyl}-N-methyl-β-alanine], for which the concentration for half-maximal inhibition (IC50) is 4.4 nM and 6.9 nM.

On to `CN(CCC(=O)O)C(=O)c1ccc2c(c1)CC[C@@H]1[C@@H]2CC[C@]2(C)C(c3cncnc3)=CC[C@@H]12` [Example 19, N-Methyl-N-{[17-(pyrimidin-5-yl)estra-1,3,5(10),16-tetraen-3-yl]carbonyl}-β-alanine], for which the IC50 is 26.7 nM (2×) and 17.8 nM.

As to `CN(CCC(=O)O)C(=O)c1ccc2c(c1)CC[C@H]1[C@@H]3[C@@H](O)C=C(c4cncc(F)c4)[C@@]3(C)CC[C@H]21` [Example 26, N-{[17-(5-Fluoropyridin-3-yl)-15α-hydroxyestra-1,3,5(10),16-tetraen-3-yl]carbonyl}-N-methyl-β-alanine], the IC50 is 11 nM and 16.6 nM.

`Cc1cc(C2=CC[C@H]3[C@@H]4CCc5cc(C(=O)N(C)CCC(=O)O)ccc5[C@H]4CC[C@]23C)cnn1` [Example 28, N-Methyl-N-{[17-(6-methylpyridazin-4-yl)estra-1,3,5(10),16-tetraen-3-yl]carbonyl}-β-alanine]: the IC50 was found to be 0.5 nM.

As for `CN(CCC(=O)O)C(=O)c1ccc2c(c1)CC[C@@H]1[C@@H]2CC[C@]2(C)C(c3cccnc3)=CC[C@@H]12` [Example 29, N-Methyl-N-{[17-(pyridin-3-yl)estra-1,3,5(10),16-tetraen-3-yl]carbonyl}-β-alanine], the IC50 is 2.5 nM.

Regarding `C[C@H](CC(=O)O)NC(=O)c1ccc2c(c1)CC[C@@H]1[C@@H]2CC[C@]2(C)C(c3cncc(F)c3)=CC[C@@H]12` [Example 13, (R)-3-({[17-(5-Fluoropyridin-3-yl)estra-1,3,5(10),16-tetraen-3-yl]carbonyl}amino)-butanoic acid], the IC50 was 0.8 nM and 1.8 nM.

Consider `C[C@]12CC[C@@H]3c4ccc(C(=O)NCC5(C(=O)O)CCCC5)cc4CC[C@H]3[C@@H]1CC=C2c1cncc(F)c1` [Example 4, 1-[({[17-(5-Fluoropyridin-3-yl)estra-1,3,5(10),16-tetraen-3-yl]carbonyl}amino)methyl]-cyclopentane-1-carboxylic acid], for which the half-maximal inhibitory concentration (IC50) is 13.9 nM and 8.9 nM.

Turning to `COc1cncc(C2=CC[C@H]3[C@@H]4CCc5cc(C(=O)NCCCC(=O)O)ccc5[C@H]4CC[C@]23C)c1` [Example 30, 4-({[17-(5-Methoxypyridin-3-yl)estra-1,3,5(10),16-tetraen-3-yl]carbonyl}amino)butanoic acid], the IC50 is 7.3 nM and 11.2 nM.

Take `C[C@]12CC[C@@H]3c4ccc(C(=O)N5CCC(C(=O)O)CC5)cc4CC[C@H]3[C@@H]1CC=C2c1cncc(F)c1` [Example 6, 1-{[17-(5-Fluoropyridin-3-yl)estra-1,3,5(10),16-tetraen-3-yl]carbonyl}piperidine-4-carboxylic acid]: the IC50 is 21.1 nM and 21 nM.
